Results published in PubChem BioAssay AID330 (DTP/NCI, 2004).
“And” between values parts separate entries of the source, which are not always exact repeats. Identical values can stand only once. Toxic doses and inconclusive results are not listed.

System: P388 leukemia ip, CD2F1 mice, survival T/C
Assay: NCI In Vivo Anticancer Drug Screen. Data for tumor model P388 Leukemia (intraperitoneal) in CD2F1 (CDF1) mice
Settings: endpoint: median survival time, higher = longer survival
Method in brief: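 Mice carrying the transplanted tumor received test compound or vehicle. Survival was recorded in each group, and the value is the treated-group measurement divided by that of the vehicle-treated control group.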

[1] = dose: 6.25 mg/kg/injection, schedule: Q01DX009 (ip), vehicle: saline with Tween-80
[2] = dose: 12.5 mg/kg/injection, schedule: Q01DX009 (ip), vehicle: saline with Tween-80
[3] = dose: 25.0 mg/kg/injection, schedule: Q01DX009 (ip), vehicle: saline with Tween-80
[4] = dose: 50.0 mg/kg/injection, schedule: Q01DX005 (ip), vehicle: Klucel (hydroxypropylcellulose) (HPC)
[5] = dose: 100.0 mg/kg/injection, schedule: Q01DX005 (ip), vehicle: Klucel (hydroxypropylcellulose) (HPC)
[6] = dose: 200.0 mg/kg/injection, schedule: Q01DX005 (ip), vehicle: Klucel (hydroxypropylcellulose) (HPC)
[7] = dose: 60.0 mg/kg/injection, schedule: Q01DX005 (ip), vehicle: saline with Tween-80
[8] = dose: 120.0 mg/kg/injection, schedule: Q01DX005 (ip), vehicle: saline with Tween-80
[9] = dose: 240.0 mg/kg/injection, schedule: Q01DX005 (ip), vehicle: saline with Tween-80
[10] = dose: 60.0 mg/kg/injection, schedule: Q01DX005 (ip), vehicle: Klucel (hydroxypropylcellulose) (HPC)
[11] = dose: 120.0 mg/kg/injection, schedule: Q01DX005 (ip), vehicle: Klucel (hydroxypropylcellulose) (HPC)
[12] = dose: 240.0 mg/kg/injection, schedule: Q01DX005 (ip), vehicle: Klucel (hydroxypropylcellulose) (HPC)
[13] = dose: 6.25 mg/kg/injection, schedule: Q01DX009 (ip), vehicle: saline
[14] = dose: 12.5 mg/kg/injection, schedule: Q01DX009 (ip), vehicle: saline
[15] = dose: 25.0 mg/kg/injection, schedule: Q01DX009 (ip), vehicle: saline

Question: COCC(=O)C1(O)Cc2c(O)c3c(c(O)c2C(O)C1)C(=O)c1c(OC)cccc1C3=O (centres undefined) was tested. Which T/C (dose: 1.56 mg/kg/injection, schedule: Q01DX009 (ip), vehicle: other) did it give?
Answer: 92 % of control

Question: What about the T/C (dose: 3.13 mg/kg/injection, schedule: Q01DX009 (ip), vehicle: other) of the same molecule?
Answer: 101 % of control

Question: What about the T/C (dose: 6.25 mg/kg/injection, schedule: Q01DX009 (ip), vehicle: other) of the same molecule?
Answer: 101 % of control

Question: What about the T/C (dose: 12.5 mg/kg/injection, schedule: Q01DX009 (ip), vehicle: other) of the same molecule?
Answer: 94 % of control

Question: And the T/C (dose: 25.0 mg/kg/injection, schedule: Q01DX009 (ip), vehicle: other)?
Answer: 92 % of control

Question: CCCOC1=C(N2CC2)C(=O)C(OCCC)=C(N2CC2)C1=O was tested. Which T/C (dose: 0.89 mg/kg/injection, schedule: Q01DX009 (ip), vehicle: saline with Tween-80) did it give?
Answer: 106 % of control

Question: What about the T/C (dose: 3.0 mg/kg/injection, schedule: Q01DX009 (ip), vehicle: saline with Tween-80) of the same molecule?
Answer: 179 % of control

Question: What about the T/C (dose: 4.0 mg/kg/injection, schedule: Q01DX009 (ip), vehicle: saline with Tween-80) of the same molecule?
Answer: 181 % of control

Question: What about the T/C (dose: 6.0 mg/kg/injection, schedule: Q01DX009 (ip), vehicle: saline with Tween-80) of the same molecule?
Answer: 186 % of control

Question: And the T/C [1]?
Answer: 190 % of control

Question: And the T/C (dose: 9.0 mg/kg/injection, schedule: Q01DX009 (ip), vehicle: saline with Tween-80)?
Answer: 109 % of control

Question: Which results are given for CCCNc1nc2c(s1)c1c(O)c3c(O)c(C)c4c(c32)C(=O)C(C)(O/C=C\C(OC)C(C)C(OC(C)=O)C(C)C(O)C(C)C(O)C(C)/C=C/C=C(/C)C(=O)N1)O4 (centres undefined)?
Answer: T/C (dose: 25.0 mg/kg/injection, schedule: Q01DX009 (ip), vehicle: Klucel (hydroxypropylcellulose) (HPC)): 92 % of control; T/C (dose: 50.0 mg/kg/injection, schedule: Q01DX009 (ip), vehicle: Klucel (hydroxypropylcellulose) (HPC)): 107 % of control; T/C (dose: 100.0 mg/kg/injection, schedule: Q01DX009 (ip), vehicle: Klucel (hydroxypropylcellulose) (HPC)): 99 % of control; T/C (dose: 200.0 mg/kg/injection, schedule: Q01DX009 (ip), vehicle: Klucel (hydroxypropylcellulose) (HPC)): 100 % of control

Question: How did the T/C (dose: 3.12 mg/kg/injection, schedule: Q01DX009 (ip), vehicle: saline + Tween-80 + alcohol) turn out when COc1ccc(/C=C\c2cc(OC)c(OC)c(OC)c2)c(O)c1O was run?
Answer: 124 % of control

Question: And the T/C (dose: 12.5 mg/kg/injection, schedule: Q01DX009 (ip), vehicle: saline + Tween-80 + alcohol)?
Answer: 104 % of control and 97 % of control

Question: What about the T/C (dose: 22.0 mg/kg/injection, schedule: Q01DX009 (ip), vehicle: saline + alcohol) of the same molecule?
Answer: 95 % of control

Question: What about the T/C (dose: 50.0 mg/kg/injection, schedule: Q01DX009 (ip), vehicle: saline + Tween-80 + alcohol) of the same molecule?
Answer: 109 % of control

Question: How did the T/C [1] turn out when CC(CN=Cc1ccccc1O)N=Cc1ccccc1O.[Zn] (centres undefined) was run?
Answer: 103 % of control

Question: What about the T/C [2] of the same molecule?
Answer: 111 % of control

Question: And the T/C [3]?
Answer: 93 % of control and 97 % of control

Question: And the T/C (dose: 50.0 mg/kg/injection, schedule: Q01DX009 (ip), vehicle: saline with Tween-80)?
Answer: 99 % of control

Question: Which results are given for N=C1/C(=C\c2ccccc2O)C(=O)NN1C(=O)c1ccncc1?
Answer: T/C (dose: 100.0 mg/kg/injection, schedule: Q01DX001 (ip), vehicle: saline): 103 % of control; T/C (dose: 200.0 mg/kg/injection, schedule: Q01DX001 (ip), vehicle: saline): 98 % of control; T/C (dose: 400.0 mg/kg/injection, schedule: Q01DX001 (ip), vehicle: saline): 104 % of control

Question: For CCC12CCC(=O)C=C1CCCC2=O (centres undefined), which T/C (dose: 25.0 mg/kg/injection, schedule: Q01DX009 (ip), vehicle: saline sonified) is on record?
Answer: 104 % of control

Question: And the T/C (dose: 50.0 mg/kg/injection, schedule: Q01DX009 (ip), vehicle: saline sonified)?
Answer: 86 % of control

Question: And the T/C (dose: 100.0 mg/kg/injection, schedule: Q01DX009 (ip), vehicle: saline sonified)?
Answer: 109 % of control

Question: What does the source list for O=C1c2ccccc2C(=O)N1Cc1ccc(Cl)cc1[N+](=O)[O-]?
Answer: T/C [4]: 103 % of control; T/C [5]: 109 % of control; T/C [6]: 98 % of control

Question: Which results are given for COc1ccc(/C=C2\C=CC(=O)O2)cc1?
Answer: T/C (dose: 100.0 mg/kg/injection, schedule: Q01DX002 (ip), vehicle: Klucel (hydroxypropylcellulose) (HPC)): 104 % of control; T/C (dose: 200.0 mg/kg/injection, schedule: Q01DX002 (ip), vehicle: Klucel (hydroxypropylcellulose) (HPC)): 103 % of control; T/C (dose: 400.0 mg/kg/injection, schedule: Q01DX002 (ip), vehicle: Klucel (hydroxypropylcellulose) (HPC)): 105 % of control

Question: For CS1(C)=NC(=O)c2cc([N+](=O)[O-])ccc2N=1, which T/C [7] is on record?
Answer: 94 % of control

Question: What about the T/C [8] of the same molecule?
Answer: 94 % of control

Question: What about the T/C [9] of the same molecule?
Answer: 92 % of control

Question: How did the T/C [7] turn out when Cc1cc2c(cc1C)C(=O)CCC(=O)N2 was run?
Answer: 102 % of control

Question: And the T/C [8]?
Answer: 97 % of control

Question: What about the T/C [9] of the same molecule?
Answer: 96 % of control

Question: For CCCCc1c[nH]n(C(N)=NCCSCc2nc[nH]c2C)c1=O, which T/C [10] is on record?
Answer: 94 % of control

Question: And the T/C [11]?
Answer: 98 % of control

Question: What about the T/C [12] of the same molecule?
Answer: 93 % of control

Question: What does the source list for CCCCOc1ccc(C(C)c2cc3c(cc2OCC)OCO3)cc1 (centres undefined)?
Answer: T/C (dose: 25.0 mg/kg/injection, schedule: Q01DX005 (ip), vehicle: Klucel (hydroxypropylcellulose) (HPC)): 103 % of control; T/C [4]: 103 % of control; T/C [5]: 100 % of control; T/C [6]: 104 % of control

Question: Which results are given for CCn1c2ccc(C(=O)CCCN3CCCCC3)cc2c2cc(C(=O)CCCN3CCCCC3)ccc21?
Answer: T/C [13]: 100 % of control; T/C [14]: 103 % of control and 113 % of control and 97 % of control; T/C [15]: 102 % of control and 121 % of control and 122 % of control

Question: Which T/C (dose: 100.0 mg/kg/injection, schedule: Q01DX001 (ip), vehicle: saline with Tween-80) does the source give for Oc1oc(-c2ccccc2)nc1/C=C1/C(Cl)=Nc2ccccc21 here?
Answer: 99 % of control

Question: And the T/C (dose: 200.0 mg/kg/injection, schedule: Q01DX001 (ip), vehicle: saline with Tween-80)?
Answer: 99 % of control

Question: What about the T/C (dose: 400.0 mg/kg/injection, schedule: Q01DX001 (ip), vehicle: saline with Tween-80) of the same molecule?
Answer: 100 % of control

Question: Which T/C [7] does the source give for CCNC1=C(C(=O)OCC)C(=O)CO1 here?
Answer: 100 % of control

Question: And the T/C [8]?
Answer: 100 % of control

Question: And the T/C [9]?
Answer: 99 % of control

Question: What does the source list for Cn1c(=O)c2[nH]c(C3COCCO3)nc2n(C)c1=O (centres undefined)?
Answer: T/C [7]: 91 % of control; T/C [9]: 87 % of control

Question: How did the T/C [10] turn out when CCOC(=O)c1cnc2cc3c(cc2c1Nc1cccc(Cl)c1)OCO3 was run?
Answer: 105 % of control

Question: And the T/C [11]?
Answer: 95 % of control

Question: And the T/C [12]?
Answer: 108 % of control

Question: O=C(NCCNC(=S)Nc1ccccc1)C(=O)NCCNC(=S)Nc1ccccc1 was tested. Which T/C (dose: 50.0 mg/kg/injection, schedule: Q01DX001 (ip), vehicle: Klucel (hydroxypropylcellulose) (HPC)) did it give?
Answer: 91 % of control

Question: What about the T/C (dose: 100.0 mg/kg/injection, schedule: Q01DX001 (ip), vehicle: Klucel (hydroxypropylcellulose) (HPC)) of the same molecule?
Answer: 91 % of control

Question: And the T/C (dose: 200.0 mg/kg/injection, schedule: Q01DX001 (ip), vehicle: Klucel (hydroxypropylcellulose) (HPC))?
Answer: 91 % of control

Question: What does the source list for COc1cc2c3cc1Oc1c(OC)c(OC)cc4c1[C@@H](Cc1ccc(OC)c(c1OC)Oc1ccc(cc1)C[C@@H]3N(C)CC2)N(C)CC4?
Answer: T/C (dose: 3.63 mg/kg/injection, schedule: Q01DX005 (ip), vehicle: Klucel (hydroxypropylcellulose) (HPC)): 103 % of control; T/C (dose: 7.25 mg/kg/injection, schedule: Q01DX005 (ip), vehicle: Klucel (hydroxypropylcellulose) (HPC)): 99 % of control; T/C (dose: 14.5 mg/kg/injection, schedule: Q01DX005 (ip), vehicle: Klucel (hydroxypropylcellulose) (HPC)): 102 % of control; T/C (dose: 29.0 mg/kg/injection, schedule: Q01DX005 (ip), vehicle: Klucel (hydroxypropylcellulose) (HPC)): 93 % of control; T/C (dose: 58.0 mg/kg/injection, schedule: Q01DX005 (ip), vehicle: Klucel (hydroxypropylcellulose) (HPC)): 109 % of control

Question: With CCOC(=O)c1nc(C)[nH]c(=O)c1C as the molecule, how does the T/C (dose: 8.0 mg/kg/injection, schedule: Q01DX009 (ip), vehicle: water) read?
Answer: 100 % of control

Question: And the T/C (dose: 16.0 mg/kg/injection, schedule: Q01DX009 (ip), vehicle: water)?
Answer: 95 % of control

Question: And the T/C (dose: 32.0 mg/kg/injection, schedule: Q01DX009 (ip), vehicle: water)?
Answer: 100 % of control

Question: And the T/C (dose: 64.0 mg/kg/injection, schedule: Q01DX009 (ip), vehicle: water)?
Answer: 100 % of control

Question: And the T/C (dose: 128.0 mg/kg/injection, schedule: Q01DX009 (ip), vehicle: water)?
Answer: 98 % of control

Question: How did the T/C (dose: 3.12 mg/kg/injection, schedule: Q01DX009 (ip), vehicle: saline) turn out when CN(C)c1cc(O)c(-n2c3cc(=O)c(N(C)C)cc-3nc3ccccc32)cc1O was run?
Answer: 100 % of control

Question: And the T/C [1]?
Answer: 93 % of control

Question: And the T/C [13]?
Answer: 96 % of control

Question: What about the T/C [2] of the same molecule?
Answer: 90 % of control

Question: And the T/C [14]?
Answer: 100 % of control

Question: And the T/C [3]?
Answer: 91 % of control

Question: And the T/C [15]?
Answer: 115 % of control

Question: And the T/C (dose: 50.0 mg/kg/injection, schedule: Q01DX009 (ip), vehicle: saline)?
Answer: 120 % of control

Question: What about the T/C (dose: 100.0 mg/kg/injection, schedule: Q01DX009 (ip), vehicle: saline) of the same molecule?
Answer: 90 % of control
